According to patent US20030229108A1, “Barbituric acid analogs as therapeutic agents” (priority 2000, published 2003):

These molecules were tested on VEGF promoter (VEGF-luciferase reporter) in Hepatoma 3B (hep3B) cells (assay: VEGF-luciferase cell-based reporter assay, desferoxamine-induced, Hepatoma 3B (hep3B) cells). Details: 15 h, read-out: Secondary Assay VEGF-luciferase IC50.
Description: This cell-based reporter assay involves the use of a luciferase reporter gene under the direct control of the VEGF promoter. Induction of HIF using desferoxamine leads to the transcription of luciferase through activation of the VEGF (Vascular Endothelial Growth Factor) promoter, which in turn leads to an increase in luciferase activity, which can be measured using most commercially available luciferase assay kits. Molecules that disrupt the HIF complex cause inhibition of HIF-dependent luciferase activation and lead to a reduction in luciferase activity. This assay allows the activity of the compounds to be assessed against the VEGF promoter, which is essential for VEGF production and subsequent angiogenesis.
Hepatoma 3B (hep3B) cells (ATCC Ref. No. HB-8064) were plated in 24-well plates at 2×10^4/well in 500 μL DMEM/10% FCS, and were transfected the following day using Fugene 6 (Roche Biochemicals®, Lewes, E. Sussex, UK). Transfection mixtures per well contained 6 μL 10% Fugene, 200 ng VEGF-luciferase reporter (rat VEGF promoter, NCBI GenBank, accession number U22373, Levy et al., 1995) and 2 ng TK-renilla (Promega®, Madison, Wis., USA) (for transfection efficiency control). Transfection was performed as recommended by manufacturer. Compounds were added the following day. After 1 hour incubation at 37° C., desferoxamine (Sigma®, Dorset, UK) was added at 100 μM to induce HIF activity. Duplicate wells without desferoxamine were run in parallel. Cells were harvested 15 hours later, and luciferase activity was measured using Dual Luciferase Assay System (Promega®, see also Technical Manual, Part #TM040, Instructions for Use of Products E1910 and E1960, revised May/1999).

| SMILES | IC50 |
| --- | --- |
| Cc1cc2nc3c(=O)[nH]c(=O)nc-3n(CC(O)C(O)C(O)CO)c2cc1C (stereo not drawn) [P2083033] | 20 µM |
| O=C1NC(=S)NC(=O)C1=C/C=C/c1ccccc1 [PX072015, 5-(3-Phenyl-allylidene)-2-thioxo-dihydro-pyrimidine-4,6-dione] | 18 µM |
| O=C1NC(=S)NC(=O)C1=Cc1ccco1 [PX083634, 5-(Furan-2-ylmethylene)-2-thioxo-dihydro-pyrimidine-4,6-dione] | 50 µM |
| Cn1c(=O)[nH]c(=O)c2c1nc(N)n2CC(O)COc1ccc(Cl)cc1 (stereo not drawn) [PX084819] | 50 µM |
| Cc1cc2nc3c(=O)n(CC(=O)O)c(=O)nc-3n(C)c2cc1C [PX088992] | 20 µM |
| CN(C)c1ccc(C=C2C(=O)N(c3ccccc3)C(=S)N(c3ccccc3)C2=O)cc1[N+](=O)[O-] [PX089626] | 75 µM |
| CCOc1ccc(Br)cc1C=C1C(=O)NC(=S)NC1=O [PX089633] | 50 µM |
| O=C1NC(=S)NC(=O)C1=Cc1c2ccccc2cc2ccccc12 [PX106031, 5-(Anthracen-9-ylmethylene)-2-thioxo-dihydro-pyrimidine-4,6-dione] | 50 µM |
| COc1ccc2cccc(/C=C3/C(=O)NC(=S)N(c4ccc(Br)cc4)C3=O)c2c1 [PX106265] | 32 µM |
| COc1cccc(N2C(=O)/C(=C/c3ccsc3)C(=O)NC2=S)c1 [PX106287] | 100 µM |
| Cc1ccc(N2C(=O)/C(=C/c3ccoc3)C(=O)NC2=S)cc1 [PX106297] | 100 µM |
| O=C1NC(=S)NC(=O)C1=Cc1ccc(-c2cc(Cl)ccc2Cl)o1 [PX106326] | 50 µM |
| O=C1NC(=S)NC(=O)C1=Cc1ccccc1OCc1ccccc1F [PX106343] | 100 µM |
| O=C1NC(=S)NC(=O)C1=Cc1ccc(/C=C/c2ccccc2)cc1 [px106027, 5-(4-Styryl-benzylidene)-2-thioxo-dihydro-pyrimidine-4,6-dione] | 75 µM |

What follows are molecules tested against T1, interaction between HIF-1α and p300 (His-HIF-1α / GST-p300) (Homo sapiens, UniProt Q09472+Q16665) (assay: Primary assay: fluorescence-based (DELFIA) screening assay for inhibition of the HIF-1α/p300 interaction). Details: not given.
T1 construct: corresponding to the C-terminal 390 amino acids into vector pET28a; A plasmid containing the N-terminal 595 amino acids of human p300; made in house; host or cells: E. coli
Format: binding
Description: Candidate compounds were assessed for their ability to inhibit the interaction between HIF-1α and p300 using a high throughput fluorescence-based screening assay (DELFIA) as follows.
A plasmid expressing His-HIF-1α fusion protein was constructed by PCR, by amplifying and subcloning a fragment of the human HIF-1α cDNA (NCBI GenBank, accession number AH006957) corresponding to the C-terminal 390 amino acids into vector pET28a (Novagen®, Madison, Wis., USA). A plasmid containing the N-terminal 595 amino acids of human p300 (NCBI GenBank, accession number U01877) inserted into vector pGEX2T (Pharmacia®, Little Chalfont, Bucks, UK) was used for the production of GST-p300 fusion protein. The recombinant proteins were produced in E. coli. His-HIF-1α was purified using Ni-NTA agarose beads, according to manufacture's method (Qiagen®, Crawley, West Sussex, UK). GST-p300 was purified using Glutathione-sepharose beads (Amersham Pharmacia®, Little Chalfont, Bucks, UK) according to manufacturer's instructions. A titration of every batch of p300 was carried out in order to determine the optimum dilution of the protein to obtain at least a 10:1 ratio signal to noise in the binding assay.
The assay was performed in 96-well Polysorb plates (Nalge Nunc International®, Rochester, N.Y., USA) as follows. Plates were coated with His-HIF-1α at 50 ng/well in […] and incubated overnight at 4° C. The plates were then washed 3 times with deionized water and blocked with 100 μL/well 3% BSA in PBS for 3 hours at 4° C. After washing 3 times as before, GST-p300 was added at the appropriate dilution (1:800 in this screening) in binding buffer (50 mM HEPES pH 7.5, 50 mM NaCl, 0.1% BSA, 0.5 mM DTT). The reaction was incubated at room temperature for 1 hour. Plates were washed 3 times and anti-GST Europium-conjugated antibody (from Wallac®, Turku, Finland) was added at 50 ng/well in […]. After 45 minutes incubation, plates were washed 3 times as before. Then, 100 μL/well enhancement solution (from Wallac®, Catalog No. 1244-105) was added and allowed to react for 15 minutes at room temperature. Plates were read on a Victor 2 plate reader (from Wallac®).

T1 sequence (Q16665 437-826 limits assumed): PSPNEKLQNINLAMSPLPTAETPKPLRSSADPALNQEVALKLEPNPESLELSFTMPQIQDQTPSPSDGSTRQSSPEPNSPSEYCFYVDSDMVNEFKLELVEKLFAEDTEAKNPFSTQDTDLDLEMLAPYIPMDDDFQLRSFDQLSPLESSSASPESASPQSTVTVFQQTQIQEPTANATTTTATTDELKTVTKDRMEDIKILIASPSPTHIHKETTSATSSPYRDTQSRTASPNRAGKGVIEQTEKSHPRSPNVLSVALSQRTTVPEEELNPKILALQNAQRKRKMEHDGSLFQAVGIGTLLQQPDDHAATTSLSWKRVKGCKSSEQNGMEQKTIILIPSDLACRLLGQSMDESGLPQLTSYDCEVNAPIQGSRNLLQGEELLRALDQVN
T1 sequence (Q09472 1-595 limits assumed): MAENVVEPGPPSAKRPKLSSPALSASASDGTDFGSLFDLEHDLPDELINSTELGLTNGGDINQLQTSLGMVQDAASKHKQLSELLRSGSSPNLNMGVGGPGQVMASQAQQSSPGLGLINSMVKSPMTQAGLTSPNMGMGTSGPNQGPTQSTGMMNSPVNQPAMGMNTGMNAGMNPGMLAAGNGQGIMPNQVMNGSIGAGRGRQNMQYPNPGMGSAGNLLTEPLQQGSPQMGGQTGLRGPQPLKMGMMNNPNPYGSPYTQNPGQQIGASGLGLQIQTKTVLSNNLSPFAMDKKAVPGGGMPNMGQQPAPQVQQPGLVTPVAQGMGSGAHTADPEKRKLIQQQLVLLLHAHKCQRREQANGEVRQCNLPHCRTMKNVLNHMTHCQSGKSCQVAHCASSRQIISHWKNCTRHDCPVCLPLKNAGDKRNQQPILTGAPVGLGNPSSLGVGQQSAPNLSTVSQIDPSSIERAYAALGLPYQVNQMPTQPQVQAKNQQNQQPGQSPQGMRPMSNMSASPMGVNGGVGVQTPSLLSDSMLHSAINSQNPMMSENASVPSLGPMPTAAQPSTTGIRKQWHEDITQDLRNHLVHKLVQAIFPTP

| SMILES | IC50 |
| --- | --- |
| O=C1NC(=O)C(=Cc2c(F)cccc2Cl)C(=O)N1 [PX069119] | 250 µM |
| COc1cc(C=C2C(=O)NC(=O)NC2=O)c([N+](=O)[O-])cc1OCc1ccccc1 [PX069153] | 200 µM |
| O=C1NC(=O)C(=Cc2ccc(Cl)c(Cl)c2)C(=O)N1 [PX072002] | 225 µM |
| COc1ccc(C=C2C(=O)NC(=O)NC2=O)cc1OC [PX072004] | 250 µM |
| COc1cc(C=C2C(=O)NC(=O)NC2=O)ccc1O [PX072008] | 300 µM |
| CCOc1ccc(C=C2C(=O)NC(=O)NC2=O)cc1 [PX072012] | 175 µM |
| COc1ccc(C=C2C(=O)NC(=O)NC2=O)c(Cl)c1OC [PX074728] | 125 µM |
| O=C1NC(=O)C(=Cc2ccc3c(c2)OCO3)C(=O)N1 [PX075240] | 100 µM |
| O=C1NC(=O)C(=Cc2cccc(OCc3ccccc3)c2)C(=O)N1 [PX075245] | 125 µM |
| CCOc1ccccc1C=C1C(=O)NC(=O)NC1=O [PX075248] | 450 µM |
| COc1ccc(OC)c(C=C2C(=O)NC(=O)NC2=O)c1 [PX075257] | 350 µM |
| COc1ccc(C=C2C(=O)NC(=S)NC2=O)cc1OC [PX075262, 5-(3,4-Dimethoxy-benzylidene)-2-thioxo-dihydro-pyrimidine-4,6-dione] | 65 µM |
| O=C1NC(=S)NC(=O)C1=Cc1ccco1 [PX083634, 5-(Furan-2-ylmethylene)-2-thioxo-dihydro-pyrimidine-4,6-dione] | 65 µM |
| O=C1NC(=O)C(=Cc2ccccc2Cl)C(=O)N1 [PX083677] | 400 µM |
| O=C1NC(=O)C(=Cc2ccc(Cl)cc2Cl)C(=O)N1 [PX089367] | 200 µM |
| O=C1NC(=O)C(=Cc2ccccc2)C(=O)N1 [PX089368] | 350 µM |
| O=C1NC(=O)C(=CC2CC=CCC2)C(=O)N1 (stereo not drawn) [PX089369] | 225 µM |
| O=C1NC(=O)C(=C/C=C/c2ccccc2)C(=O)N1 [PX089370] | 225 µM |
| COc1cccc(C=C2C(=O)NC(=O)NC2=O)c1OC [PX089371] | 400 µM |
| O=C1NC(=O)C(=Cc2ccc(O)c(O)c2)C(=O)N1 [PX089374] | 230 µM |
| COc1ccc(C=C2C(=O)NC(=O)NC2=O)cc1 [PX089375] | 200 µM |
| O=C1NC(=O)C(=Cc2cccc(O)c2)C(=O)N1 [PX089376] | 200 µM |

| SMILES | IC50 |
| --- | --- |
| O=C1NC(=O)C(=Cc2ccc(O)cc2)C(=O)N1 [PX089377] | 400 µM |
| O=C1NC(=S)NC(=O)C1=C/C=N/Nc1ccccc1 [PX089619] | 180 µM |
| O=C1NC(=O)C(=C/C=N/Nc2ccccc2)C(=O)N1 [PX089620] | 80 µM |
| CN(C)c1ccc(C=C2C(=O)N(c3ccccc3)C(=S)N(c3ccccc3)C2=O)cc1[N+](=O)[O-] [PX089626] | 40 µM |
| CC(=O)Nc1ccc(C=C2C(=O)NC(=S)NC2=O)cc1 [PX089632, N-[4-(4,6-Dioxo-2-thioxo-tetrahydro-pyrimidin-5-ylidenemethyl)-phenyl]-acetamide] | 15 µM |
| CCOc1ccc(Br)cc1C=C1C(=O)NC(=S)NC1=O [PX089633] | 70 µM |
| O=C1NC(=S)NC(=O)C1=Cc1cccs1 [PX089638] | 130 µM |
| O=C1NC(=S)NC(=O)C1=Cc1ccc(Cl)cc1 [PX089640, 5-(4-Chloro-benzylidene)-2-thioxo-dihydro-pyrimidine-4,6-dione] | 100 µM |
| COc1ccc(C=C2C(=O)N(c3ccccc3)C(=S)N(c3ccccc3)C2=O)cc1OC [PX089646] | 100 µM |
| CCN(CC)c1ccc(C=C2C(=O)N(c3ccccc3)C(=S)N(c3ccccc3)C2=O)cc1 [PX089647] | 100 µM |
| COc1ccc(C=C2C(=O)NC(=S)NC2=O)cc1OCc1ccccc1 [PX105990, 5-(3-Benzyloxy-4-methoxy-benzylidene)-2-thioxo-dihydro-pyrimidine-4,6-dione] | 20 µM |
| COc1ccccc1C=C1C(=O)NC(=S)NC1=O [PX105993, 5-(2-Methoxy-benzylidene)-2-thioxo-dihydro-pyrimidine-4,6-dione] | 80 µM |
| Cc1ccccc1N1C(=O)/C(=C/c2ccco2)C(=O)NC1=S [PX106130] | 29 µM |
| Cc1cc(C=C2C(=O)NC(=S)NC2=O)c(C)n1-c1sc2c(c1C#N)CCCC2 [PX106174] | 43 µM |
| O=C1NC(=S)N(c2ccc(F)cc2)C(=O)/C1=C/c1ccc(-c2ccc(Cl)c(C(=O)O)c2)o1 [PX106244] | 40 µM |
| O=C1NC(=S)N(c2ccc(F)cc2)C(=O)/C1=C/c1ccc2c(c1)OCO2 [PX106255] | 3 µM |
| COc1ccc2cccc(/C=C3/C(=O)NC(=S)N(c4ccc(Br)cc4)C3=O)c2c1 [PX106265] | 50 µM |
| COc1ccc(OC)c(N2C(=O)/C(=C/c3ccco3)C(=O)NC2=S)c1 [PX106274] | 29 µM |
| O=C1NC(=S)N(c2ccc(Cl)cc2)C(=O)/C1=C/C=C/c1ccco1 [PX106291] | 80 µM |
| Cc1ccc(N2C(=O)/C(=C/c3ccoc3)C(=O)NC2=S)cc1 [PX106297] | 32 µM |
| O=C1NC(=S)NC(=O)C1=Cc1ccc(-c2cc(Cl)ccc2Cl)o1 [PX106326] | 40 µM |
| O=C1NC(=S)NC(=O)C1=Cc1ccccc1OCc1ccccc1F [PX106343] | 49 µM |

Same assay, conditions: read-out: Primary Assay Inhibition IC50

| SMILES | IC50 |
| --- | --- |
| COc1cccc(-c2nc3c(=N)n(-c4ccc(Cl)cc4)c(=O)[nH]c3c(=O)[nH]2)c1O [P2081958] | 125 µM |
| N=c1c2nc(-c3ccccc3)[nH]c(=O)c2[nH]c(=O)n1-c1ccccc1 [P2082132] | 125 µM |
| N=c1c2nc(-c3ccc4c(c3)OCO4)[nH]c(=O)c2[nH]c(=O)n1-c1ccc(Cl)cc1 [P2082202] | 250 µM |
| COc1ccc(-c2nc3c(=N)n(-c4cccc(C(F)(F)F)c4)c(=O)[nH]c3c(=O)[nH]2)cc1OC [P2082229] | 125 µM |
| Cn1c(=O)c2c(ncn2CC(O)CN2CCN(c3cccc(Cl)c3)CC2)n(C)c1=O (stereo not drawn) [P2082796] | 150 µM |
| COc1ccc(-c2nc3c(=N)n(-c4ccc(Cl)cc4)c(=O)[nH]c3c(=O)[nH]2)cc1 [PX081770] | 125 µM |
| Cn1c(=O)[nH]c(=O)c2c1nc(N)n2CC(O)COc1ccc(Cl)cc1 (stereo not drawn) [PX084819] | 10 µM |
| Cc1cc2nc3c(=O)n(CC(=O)O)c(=O)nc-3n(C)c2cc1C [PX088992] | 10 µM |
